Experimental data reported in US8637038B2, “Methods for inhibiting allograft rejection” (Rigel Pharmaceuticals, Inc., priority 2011, dated 2014).
“Also recorded” adds a separate entry of the source. Like-named read-outs stand apart in the source and are kept apart here.

How the values were obtained:
[1] = In vivo pharmacokinetics, plasma levels by LC/MS/MS; set-up: species or system Lewis rats; conditions: for time of peak plasma level after administration: male Lewis rats
Procedure: Male Lewis rats were orally administered at dosages of Compound I HD (60 mg/kg/BID); Compound I LD (15 mg/kg/BID); Compound III HD (20 mg/kg/BID), and Compound III LD (5 mg/kg/BID), respectively. Plasma levels of drugs were quantified 0.5, 1, 1.5, 2, 3, 4, 6, 8, and 10 hours after administration. Plasma levels of Compound I and Compound III were quantified by LC/MS/MS.
Pharmacokinetics were performed in male Lewis rats. Plasma levels were measured within a 10 hour period. Resulting plasma concentrations of Compound I HD (60 mg/kg BID), Compound I LD (15 mg/kg BID), Compound III HD (20 mg/kg BID), and Compound III LD (5 mg/kg BID) are depicted in FIG. 1. Compound I HD and Compound I LD plasma levels peaked 1.5-2 hours after administration. Compound III HD plasma levels peaked after 3-3.5 hours and Compound III LD levels 2 hours after administration.

[2] = test system: human peripheral blood lymphocytes; assay: Mixed lymphocyte reaction (MLR); type: cell-based
Procedure: (§1) The activity of Compound III and Compound I was assessed in a panel of cell-based assays. Compound III and Compound I are selective inhibitors of JAK1/3-dependent signaling. Data for a non-selective JAK inhibitor (Compound IV) is shown for reference. Mixed lymphocyte reactions (MLRs) were performed by incubating freshly prepared naive human peripheral blood lymphocytes from one donor with CD80+/CD86+ mature Dendritic Cells derived from a different donor for 5 days. The percentage of CD3+/CD71+ (anti-CD3-APC, Clone HIT3a, anti-CD 71-FITC, Clone M-A712; BD Biosciences, San Jose, Calif.) proliferating cells was assessed by fluorescence-activated cell sorting (FACS; BD Bioscience). Interleukin-2 (IL-2)-dependent human primary T cell proliferation was assessed using CellTiter-Glo® Luminescent Cell Viability Assay (Promega, Madison, Wis.). STAT phosphorylation induced by different cytokines in human primary T cells was measured by intracellular FACS analysis (anti-pY694-STAT5 AlexaFluor488, anti-pY701-STAT1 AlexaFluor488, and anti-pY693-STAT4 AlexaFluor488; BD Biosciences). STAT phosphorylation induced by different cytokines was performed in whole blood after red blood cell lysis (Lyse/Fix buffer, BD Biosciences) and methanol permeabilization. Interferon-γ (IFN-γ) signaling was assessed in the U937 monocytic cell line by measuring ICAM-1 surface expression by FACS (ICAM-1-APC, BD Bioscience).

[3] = test system: JAK1/Tyk2; assay: IFN-γ T cell phospho-STAT1; type: cell-based; conditions: Homo sapiens
Procedure: as §1, with “STAT phosphorylation induced by different cytokines was performed in whole blood after red blood cell lysis (Lyse/Fix buffer, BD Biosciences) and methanol permeabilization.” left out

[4] = test system: Lew recipients of heterotopic BN heart transplants; assay: Five-day heart allograft study: intragraft cytokines (Quantibody arrays); type: in vivo, rat; conditions: HD groups; for intragraft IFN-γ release / intragraft IL-10 release compared to no medication group: five days; for intragraft IFN-γ release / intragraft IL-10 release compared to no medication group / intragraft IL-10 release compared to Tac HD treatment: p<0.05
Procedure: Compound I and Compound III were provided by Rigel (South San Francisco, Calif.) and Tacrolimus was provided by Astellas (Munich, Germany). All drugs were administrated orally each in two different concentrations: Compound I LD (15 mg/kg BID; n=6) and HD (60 mg/kg BID; n=6); […] Administration of all drugs was performed every day at the same time points. Tacrolimus was applied only once a day (QD) every 24 hours. During administration of Compound I (BID) and Compound III (BID) a 12 hour pause was kept in between each drug application. Lew recipients of heterotopic BN heart transplants were randomly assigned to their group. […] An untreated syngeneic transplant group Lew-Lew was generated as control. […] Hearts were equally homogenized in 400 μl RIPA buffer (Sigma-Aldrich, St. Louis, Mo.). The protein content within the supernatant was quantified using the colorimetric BCA protein assay (Thermo Fisher Scientific, Rockford, Ill.) at 562 nm wavelength, according to the manufacturer's protocol. A total of 300 μg protein per Quantibody® array glass chip was used to quantitatively measure the intracellular cytokine content by ELISA in quadruplicates (Human cytokine array 1, Raybiotech). All values were normalized to the standard curve. Glass chip analysis was performed by Raybiotech.

[5] = test system: Lck/AZP70; assay: Anti-CD3/CD28 T cell IL-2 production; type: cell-based; conditions: Homo sapiens
Procedure: (§2) The erythropoietin (EPO)-dependent survival of cultured human erythroid progenitor cells (CHEPs) was determined using CellTiter-Glo® Luminescent Cell Viability Assay (Promega). Human primary T cell activation was assessed by measuring IL-2 production by ELISA (R&D Systems, Minneapolis, Minn., USA) following plate-bound anti-CD3 and anti-CD28 stimulation (Anti-Human CD3; BD Biosciences; Anti-Human CD28; Immunotech; Prague, Czech Republic). The enzymatic activity of tryptase released by human cultured mast cells (CHMCs) upon stimulation with IgE was quantified by cleavage of the synthetic fluorescent peptide substrate Z-Ala-Lys-Arg-7-amino-4-methylcoumarin (MP Biomedicals, Solon, Ohio, USA) in tryptase buffer. B-cell receptor-dependent Erk phosphorylation was measured in Ramos cells by intracellular FACS (anti-pT202/pY204-ERK1/2-AlexaFluor488; BD Biosciences). Cell proliferation assays were performed using A549 epithelial cells and H1299 lung carcinoma cells using nuclear staining to measure cell numbers (4′6-diamidino-2-phenylindole, dihydrochloride (DAPI; Invitrogen, Darmstadt, Germany)).

[6] = test system: Syk; assay: Anti-IgM Ramos phospho-Erk; type: cell-based; conditions: Homo sapiens, read-out: Anti-IgM Ramos phospho-Erk EC50
Procedure: as §2

[7] = test system: JAK2/Tyk2; assay: IL-12 T cell phospho-STAT4; type: cell-based, human; conditions: for EC50: Homo sapiens, T-cell, read-out: IL-12 T cell phospho-STAT4 EC50; for inhibition of JAK2/Tyk2-dependent phosphorylation of Stat4 in response to IL-12: human primary T-cells
Procedure: as §1

[8] = HD oral: Compound I 60 mg/kg BID, Compound III 20 mg/kg BID
[9] = LD oral: Compound I 15 mg/kg BID, Compound III 5 mg/kg BID
[10] = read-out: EC50, proliferative response of human primary T-cells in the mixed lymphocyte reaction

Row | Structure (SMILES) | time of peak plasma level after administration [1, 8] [h] | time of peak plasma level after administration [1, 9] [h] | EC50 ([2]; 120 h, 5 days, CD3+/CD71+ proliferating cells by FACS, read-out: MLR EC50) [nM] | EC50 [2, 10] [nM] | EC50 ([3]; upstream kinases JAK1/Tyk2, read-out: IFN-γ T cell phospho-STAT1 EC50) [nM] | intragraft MCP-1 release compared to Tac HD treatment [4] | intragraft IFN-γ release [4] | intragraft IL-10 release compared to no medication group [4] | intragraft IL-10 release compared to Tac HD treatment [4] | EC50 ([5]; upstream kinases Lck/AZP70, read-out: Anti-CD3/CD28 T cell IL-2 production EC50) [nM] | EC50 ([6]; upstream kinase Syk) [nM] | EC50 ([7]; upstream kinases JAK2/Tyk2) [nM] | inhibition of JAK2/Tyk2-dependent phosphorylation of Stat4 in response to IL-12 [7] | AUC of HD group relative to LD group ([1]; Compound I 60 vs 15 mg/kg BID, Compound III 20 vs 5 mg/kg BID, 10 hour period) [fold] | EC50 ([2]; 120 h, read-out: MLR EC50) [nM] | EC50 ([3]; read-out: IFN-γ T cell phospho-STAT1 EC50) [nM] | EC50 ([5]; read-out: Anti-CD3/CD28 T cell IL-2 production EC50) [nM] | EC50 [6] [nM] | EC50 [7] [nM]
1 | COc1cc(Nc2ncc(C)c(Nc3ccc4oc(=O)[nH]c4c3)n2)cc(C)c1F [Compound I, 5-(2-(4-fluoro-3-methoxy-5-methylphenylamino)-5-methylpyrimidin-4-ylamino)benzo[d]oxazol-2(3H)-one] | 1.5 to 2 | 1.5 to 2 | 16 ± 7 | 16 | 9 ± 7 | lower mean values | significantly less; also recorded: significant reduction | significantly reduced; also recorded: significant reduction | significantly less IL-10 release | 2860 ± 118 | 1440 ± 586 | 463 | only weakly inhibited |  |  |  |  |  | 
2 | COc1cc(Nc2ncc(C)c(Nc3ccc4oc(=O)[nH]c4c3)n2)cc(C)c1C [Compound III, 5-(2-(3-methoxy-4,5-dimethylphenylamino)-5-methylpyrimidin-4-ylamino)benzol[d]oxazol-2-(3H)-one] | 3 to 3.5 | 2 |  | 22 |  | lower mean values | significantly less; also recorded: significant reduction | significantly reduced; also recorded: significant reduction | significantly less IL-10 release |  |  |  | only weakly inhibited | > 22 | 22 ± 6 | 7 ± 1 | 19700 ± 2900 | 1280 ± 190 | 1560 ± 971
